Data taken from patent publication US20240158446A1, “CYCLIC COMPOUND HAVING SELECTIVE INHIBITORY ACTION ON KRAS OVER HRAS AND NRAS” (CHUGAI SEIYAKU KABUSHIKI KAISHA, priority 2021, published 2024).

How the values were obtained:
[1] = target: GDP-bound KRAS wild-type protein (Homo sapiens, UniProt P01116); assay: Binding to KRAS by surface plasmon resonance (SPR), Single Cycle Kinetics; conditions: SPR, Single Cycle Kinetics, 1:1 binding model; GDP-bound KRAS wild-type protein; read-out: KRAS KD
[2] = target: GDP-bound NRAS wild-type protein (Homo sapiens, UniProt P01111); assay: Binding to NRAS by surface plasmon resonance (SPR), Single Cycle Kinetics; conditions: SPR; GDP-bound NRAS wild-type protein vs GDP-bound KRAS wild-type protein; KD ratio class
[3] = target: GDP-bound HRAS wild-type protein (Homo sapiens, UniProt P01112); assay: Binding to HRAS by surface plasmon resonance (SPR), Single Cycle Kinetics; conditions: SPR; GDP-bound HRAS wild-type protein vs GDP-bound KRAS wild-type protein; KD ratio class
Sequence of GDP-bound HRAS wild-type protein (P01112 whole entry): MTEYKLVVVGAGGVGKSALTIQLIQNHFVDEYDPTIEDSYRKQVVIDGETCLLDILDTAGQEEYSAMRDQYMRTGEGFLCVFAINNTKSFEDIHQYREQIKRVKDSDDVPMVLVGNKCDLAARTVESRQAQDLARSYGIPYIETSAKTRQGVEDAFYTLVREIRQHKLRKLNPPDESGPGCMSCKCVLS

Sequence of GDP-bound NRAS wild-type protein (P01111 whole entry): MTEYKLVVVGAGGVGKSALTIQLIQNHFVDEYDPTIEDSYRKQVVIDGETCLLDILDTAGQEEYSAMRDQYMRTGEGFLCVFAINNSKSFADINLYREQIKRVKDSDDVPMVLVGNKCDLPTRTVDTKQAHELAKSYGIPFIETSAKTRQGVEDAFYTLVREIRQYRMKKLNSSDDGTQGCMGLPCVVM
Sequence of GDP-bound KRAS wild-type protein (P01116 whole entry): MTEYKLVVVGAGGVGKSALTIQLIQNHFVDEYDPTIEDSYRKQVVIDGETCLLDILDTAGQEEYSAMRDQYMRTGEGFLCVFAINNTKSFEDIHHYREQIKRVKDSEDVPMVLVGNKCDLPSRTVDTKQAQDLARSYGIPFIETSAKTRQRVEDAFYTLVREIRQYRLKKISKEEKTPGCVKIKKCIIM

Row | SMILES | Kd [1] | NRAS/KRAS (ratio of KD value for NRAS to KD value for KRAS) [2] | HRAS/KRAS (ratio of KD value for HRAS to KD value for KRAS) [3]
1 | CCO[C@@H]1C[C@H]2C(=O)NC3(CCC3)C(=O)N(C)[C@@H](C3CCCC3)C(=O)N(C)[C@H](C(=O)N(C)CC)CC(=O)N(C)[C@@H](CC3CC3)C(=O)N[C@@H]([C@@H](C)CC)C(=O)N(C)CC(=O)N(C)[C@H]3C/C=C\CCN(C3=O)[C@@H](Cc3ccc(C(F)(F)F)cc3)C(=O)N(C)CC(=O)N[C@@H](CCc3cc(F)c(C(F)(F)F)c(F)c3)C(=O)N2C1 [PP1301] | 0.083 nM | A (a compound having 10 or more and less than 20 is denoted as A) | A (a compound having 10 or more and less than 20 is denoted as A)
2 | CCO[C@@H]1C[C@H]2C(=O)NC3(CCC3)C(=O)N(C)[C@@H](C3CCCC3)C(=O)N(C)[C@H](C(=O)N(C)CC)CC(=O)N(C)[C@@H](CC(F)F)C(=O)N[C@@H]([C@@H](C)CC)C(=O)N(C)CC(=O)N(C)[C@H]3C/C=C\CCN(C3=O)[C@@H](Cc3ccc(C(F)(F)F)cc3)C(=O)N(C)CC(=O)N[C@@H](CCc3cc(F)c(C(F)(F)F)c(F)c3)C(=O)N2C1 [PP1303] | 0.068 nM | AA (a compound having 20 or more is denoted as AA) | A (a compound having 10 or more and less than 20 is denoted as A)
3 | CCO[C@@H]1C[C@H]2C(=O)NC3(CCC3)C(=O)N(C)[C@@H](C3CCCC3)C(=O)N(C)[C@H](C(=O)N(CC)CC)CC(=O)N(C)[C@@H](CC)C(=O)N[C@@H]([C@@H](C)CC)C(=O)N(C)CC(=O)N(C)[C@H]3C/C=C\CCN(C3=O)[C@@H](Cc3ccc(C(F)(F)F)cc3)C(=O)N(C)CC(=O)N[C@@H](CCc3cc(F)c(C(F)(F)F)c(F)c3)C(=O)N2C1 [PP1305, (2S,8S,12R,14S,20S,23S,27S,30S,36S,38Z)-20-cyclopentyl-8-[2-[3,5-difluoro-4-(trifluoromethyl)phenyl]ethyl]-12-ethoxy-N,N,27-triethyl-4,19,22,26,32,35-hexamethyl-30-[(1S)-1-methylpropyl]-3,6,9,15,18,21,25,28,31,34,42-undecaoxo-2-[[4-(trifluoromethyl)phenyl]methyl]spiro[1,4,7,10,16,19,22,26,29,32,35-undecazatricyclo[34.5.1.0^10,14]dotetracont-38-ene-17,1′-cyclobutane]-23-carboxamide] | 0.12 nM | AA (a compound having 20 or more is denoted as AA) | A (a compound having 10 or more and less than 20 is denoted as A)
4 | CCO[C@@H]1C[C@H]2C(=O)NC3(CCC3)C(=O)N(C)[C@@H](C3CCCC3)C(=O)N(C)[C@H](C(=O)N(CC)CC)CC(=O)N(C)[C@@H](CC(C)C)C(=O)N[C@@H]([C@@H](C)CC)C(=O)N(C)CC(=O)N(C)[C@H]3C/C=C\CCN(C3=O)[C@@H](Cc3ccc(C(F)(F)F)cc3)C(=O)N(C)CC(=O)N[C@@H](CCc3cc(F)c(C(F)(F)F)c(F)c3)C(=O)N2C1 [PP1306] | 0.2 nM | AA (a compound having 20 or more is denoted as AA) | A (a compound having 10 or more and less than 20 is denoted as A)
5 | CCO[C@@H]1C[C@H]2C(=O)NC3(CCC3)C(=O)N(C)[C@@H](C3CCCC3)C(=O)N(C)[C@H](C(=O)N(CC)CC)CC(=O)N(C)[C@@H](C)C(=O)N[C@@H]([C@@H](C)CC)C(=O)N(C)CC(=O)N(C)[C@H]3C/C=C\CCN(C3=O)[C@@H](Cc3ccc(C(F)(F)F)cc3)C(=O)N(C)CC(=O)N[C@@H](CCc3cc(F)c(C(F)(F)F)c(F)c3)C(=O)N2C1 [PP1308, (2S,8S,12R,14S,20S,23S,27S,30S,36S,38Z)-20-cyclopentyl-8-[2-[3,5-difluoro-4-(trifluoromethyl)phenyl]ethyl]-12-ethoxy-N,N-diethyl-4,19,22,26,27,32,35-heptamethyl-30-[(1S)-1-methylpropyl]-3,6,9,15,18,21,25,28,31,34,42-undecaoxo-2-[[4-(trifluoromethyl)phenyl]methyl]spiro[1,4,7,10,16,19,22,26,29,32,35-undecazatricyclo[34.5.1.0^10,14]dotetracont-38-ene-17,1′-cyclobutane]-23-carboxamide] | 0.1 nM | A (a compound having 10 or more and less than 20 is denoted as A) | A (a compound having 10 or more and less than 20 is denoted as A)

More lines, main results first:

Row | Kd [1] | SMILES | NRAS/KRAS (ratio of KD value for NRAS to KD value for KRAS) [2] | HRAS/KRAS (ratio of KD value for HRAS to KD value for KRAS) [3]
6 | 0.082 nM | CCO[C@@H]1C[C@H]2C(=O)NC3(CCC3)C(=O)N(C)[C@@H](C3CCCC3)C(=O)N(C)[C@H](C(=O)N(C)CC)CC(=O)N(C)[C@@H](CC(C)C)C(=O)N[C@@H]([C@@H](C)CC)C(=O)N(C)CC(=O)N(C)[C@H]3C/C=C\CCN(C3=O)[C@@H](Cc3ccc(C(F)(F)F)cc3)C(=O)N(C)CC(=O)N[C@@H](CCc3cc(F)c(C(F)(F)F)c(F)c3)C(=O)N2C1 [PP1300, (2S,8S,12R,14S,20S,23S,27S,30S,36S,38Z)-20-cyclopentyl-8-[2-[3,5-difluoro-4-(trifluoromethyl)phenyl]ethyl]-12-ethoxy-N-ethyl-27-isobutyl-N,4,19,22,26,32,35-heptamethyl-30-[(1S)-1-methylpropyl]-3,6,9,15,18,21,25,28,31,34,42-undecaoxo-2-[[4-(trifluoromethyl)phenyl]methyl]spiro[1,4,7,10,16,19,22,26,29,32,35-undecazatricyclo[34.5.1.0^10,14]dotetracont-38-ene-17,1′-cyclobutane]-23-carboxamide] | A (a compound having 10 or more and less than 20 is denoted as A) | A (a compound having 10 or more and less than 20 is denoted as A)
7 | 0.057 nM | CCO[C@@H]1C[C@H]2C(=O)NC3(CCC3)C(=O)N(C)[C@@H](C3CCCC3)C(=O)N(C)[C@H](C(=O)N(C)CC)CC(=O)N(C)[C@@H](C)C(=O)N[C@@H]([C@@H](C)CC)C(=O)N(C)CC(=O)N(C)[C@H]3C/C=C\CCN(C3=O)[C@@H](Cc3ccc(C(F)(F)F)cc3)C(=O)N(C)CC(=O)N[C@@H](CCc3cc(F)c(C(F)(F)F)c(F)c3)C(=O)N2C1 [PP1302, (2S,8S,12R,14S,20S,23S,27S,30S,36S,38Z)-20-cyclopentyl-8-[2-[3,5-difluoro-4-(trifluoromethyl)phenyl]ethyl]-12-ethoxy-N-ethyl-N,4,19,22,26,27,32,35-octamethyl-30-[(1S)-1-methylpropyl]-3,6,9,15,18,21,25,28,31,34,42-undecaoxo-2-[[4-(trifluoromethyl)phenyl]methyl]spiro[1,4,7,10,16,19,22,26,29,32,35-undecazatricyclo[34.5.1.0^10,14]dotetracont-38-ene-17,1′-cyclobutane]-23-carboxamide] | A (a compound having 10 or more and less than 20 is denoted as A) | A (a compound having 10 or more and less than 20 is denoted as A)
8 | 0.07 nM | CCC[C@H]1C(=O)N[C@@H]([C@@H](C)CC)C(=O)N(C)CC(=O)N(C)[C@H]2C/C=C\CCN(C2=O)[C@@H](Cc2ccc(C(F)(F)F)cc2)C(=O)N(C)CC(=O)N[C@@H](CCc2cc(F)c(C(F)(F)F)c(F)c2)C(=O)N2C[C@H](OCC)C[C@H]2C(=O)NC2(CCC2)C(=O)N(C)[C@@H](C2CCCC2)C(=O)N(C)[C@H](C(=O)N(C)CC)CC(=O)N1C [PP1304, (2S,8S,12R,14S,20S,23S,27S,30S,36S,38Z)-20-cyclopentyl-8-[2-[3,5-difluoro-4-(trifluoromethyl)phenyl]ethyl]-12-ethoxy-N-ethyl-N,4,19,22,26,32,35-heptamethyl-30-[(1S)-1-methylpropyl]-3,6,9,15,18,21,25,28,31,34,42-undecaoxo-27-propyl-2-[[4-(trifluoromethyl)phenyl]methyl]spiro[1,4,7,10,16,19,22,26,29,32,35-undecazatricyclo[34.5.1.0^10,14]dotetracont-38-ene-17,1′-cyclobutane]-23-carboxamide] | A (a compound having 10 or more and less than 20 is denoted as A) | A (a compound having 10 or more and less than 20 is denoted as A)
9 | 0.13 nM | CCC[C@H]1C(=O)N[C@@H]([C@@H](C)CC)C(=O)N(C)CC(=O)N(C)[C@H]2C/C=C\CCN(C2=O)[C@@H](Cc2ccc(C(F)(F)F)cc2)C(=O)N(C)CC(=O)N[C@@H](CCc2cc(F)c(C(F)(F)F)c(F)c2)C(=O)N2C[C@H](OCC)C[C@H]2C(=O)NC2(CCC2)C(=O)N(C)[C@@H](C2CCCC2)C(=O)N(C)[C@H](C(=O)N(CC)CC)CC(=O)N1C [PP1310, (2S,8S,12R,14S,20S,23S,27S,30S,36S,38Z)-20-cyclopentyl-8-[2-[3,5-difluoro-4-(trifluoromethyl)phenyl]ethyl]-12-ethoxy-N,N-diethyl-4,19,22,26,32,35-hexamethyl-30-[(1S)-1-methylpropyl]-3,6,9,15,18,21,25,28,31,34,42-undecaoxo-27-propyl-2-[[4-(trifluoromethyl)phenyl]methyl]spiro[1,4,7,10,16,19,22,26,29,32,35-undecazatricyclo[34.5.1.0^10,14]dotetracont-38-ene-17,1′-cyclobutane]-23-carboxamide] | AA (a compound having 20 or more is denoted as AA) | A (a compound having 10 or more and less than 20 is denoted as A)
